Drawing on PubChem BioAssay (NCI), this text covers TGI for seven molecules.

Common to all, as to assay: NCI anticancer screen, dose series, 48 h
Assay [1] relates to NCI/ADR-RES ovarian.
For assay [2], the system named is NCI-H23 lung.
In assay [3] the test system is ACHN renal.
For assay [4], the system named is IGROV1 ovarian.
Assay [5] deals with MDA-MB-435.
The test system of assay [6] is A549 NSCLC.
Assay [7] relates to MALME-3M melanoma.
The test system of assay [8] is OVCAR-8 ovarian.
In assay [9] the test system is TK-10 renal.
Assay [10] has as its system SF-539 CNS.
Assay [11] relates to 786-0 renal.
For assay [12], the system named is OVCAR-3 ovarian.
Assay [13] relates to NCI-H522 lung.
Assay [14] has as its system SW-620 colon.
The subject of assay [15] is UO-31 renal.
The subject of assay [16] is LOX IMVI melanoma.
Assay [17] has as its system HS 578T breast.
Assay [18] relates to DU-145 prostate.
The test system of assay [19] is NCI-H226 lung.

Each structure is given as a SMILES string.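 Results reflect a 48-hour exposure of cells in 96-well plates to compound at five concentrations. TGI is the concentration that stops growth completely.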

In the case of `CCCCC/C=C1\CCC(CN2CCOCC2)C1=O` (stereo not drawn), the TGI in assay [1] stood at 54.6 µM; in [2] it was 29.8 µM; in assay [3], 30.1 µM; in [4], 33 µM; in assay [5], 17.8 µM; in assay [6], 39.4 µM. The TGI stood at 18.9 µM in assay [7]; 13 µM in assay [8]; 18.9 µM in assay [9]; 30 µM in assay [10]; 7.17 µM in assay [11]; 12.2 µM in assay [12]. The TGI in assay [13] was 5.18 µM; in assay [14] it was 11.5 µM; in assay [15], 25.9 µM; in assay [16], 10.5 µM; in assay [17], greater than 100 µM; in assay [18] it was 33.2 µM. The molecule also displayed a TGI in assay [19] of 33.5 µM.

With `CNC(=O)OC(C)CN1c2ccccc2Sc2ccccc21` (stereo not drawn), the TGI in [1], in assay [2], in [3], in assay [4], in assay [5] and in assay [6] was greater than 100 µM each time. Also, the TGI in assay [7], in [8], in assay [9], in assay [10], in [11] and in assay [12] was greater than 100 µM each time. Further, the TGI in assay [13], in assay [14], in [15], in assay [16], in assay [17] and in [18] was greater than 100 µM in each case. In assay [19], this molecule returned a TGI greater than 100 µM.

As for `COC(=O)c1ccc(/C=N/c2cc(C)nn2-c2ccccc2)cc1`, the TGI in [1] is greater than 100 µM; in [2], greater than 100 µM; in [3], greater than 100 µM; in assay [4], greater than 100 µM; in assay [5] it was 96.6 µM; in assay [6], greater than 100 µM. Besides, the TGI in assay [7] is greater than 100 µM; in [8], greater than 100 µM; in assay [9], 6.18 µM; in assay [10] it was greater than 100 µM; in assay [11] it was greater than 100 µM; in [12], 38.7 µM. In addition, the TGI in [13], in [14], in assay [15], in assay [16], in assay [17] and in assay [18] was greater than 100 µM in each case. Besides, the TGI in assay [19] is greater than 100 µM.

As for `Cc1occc1C(=S)Nc1ccc(Cl)c(C(=O)OCC2CC2)c1`, the TGI in assay [1], in assay [2], in assay [3], in [4], in assay [5] and in assay [6] was greater than 100 µM each time. The TGI in assay [7], in assay [8], in assay [9], in assay [10], in assay [11] and in assay [12] was greater than 100 µM each time. The TGI in [13], in assay [14], in assay [15], in [16], in assay [17] and in assay [18] was greater than 100 µM each time. Moreover, in assay [19], the TGI was greater than 100 µM.

For the molecule `COC(=O)C1=C(O)C(C(=O)OC)[C@@]2(O)[C@@H](C(=O)OC)C(c3ccc(OC(=O)/C(=C/c4ccccc4)c4ccccc4)cc3)C[C@@H]1[C@@H]2C(=O)OC` (stereo partly drawn), the TGI in assay [1], in [2], in [3], in assay [4], in assay [5] and in assay [6] was greater than 100 µM in each case. For the same molecule, the TGI in assay [7] is greater than 100 µM; in assay [8], greater than 100 µM; in assay [9], 51.4 µM; in [10], 8.44 µM; in assay [11], greater than 100 µM; in assay [12], greater than 100 µM. Moreover, the TGI in assay [13] is greater than 100 µM; in assay [14] it was greater than 100 µM; in [15] it was 40.4 µM; in [16], 22.5 µM; in assay [17], greater than 100 µM; in assay [18], greater than 100 µM. Besides, the TGI in assay [19] was 42.6 µM.

With `Cc1ccc(-c2n[nH]c(=O)n2N)cc1`, the TGI in [1], in assay [2], in assay [3], in assay [4], in assay [5] and in assay [6] was greater than 100 µM each time. Moreover, the TGI in [7], in [8], in [9], in [10], in assay [11] and in [12] was greater than 100 µM throughout. The TGI in assay [13], in assay [14], in assay [15], in assay [16], in [17] and in assay [18] was greater than 100 µM each time. Besides, the TGI in assay [19] is greater than 100 µM.

For `COc1ccc(Oc2nc3cc(C(F)(F)F)ccc3nc2C(C)C)cc1`, the TGI in assay [1] is 44.1 µM; in assay [2], 52.6 µM; in assay [3], 90.4 µM; in assay [4] it was 82.7 µM; in assay [5], greater than 100 µM; in assay [6] it was greater than 100 µM. Also, the TGI in [7] was 72.4 µM; in assay [8], 94.5 µM; in [9], greater than 100 µM; in assay [10] it was greater than 100 µM; in [11], greater than 100 µM; in assay [12], 93.3 µM. Besides, the TGI is 41.3 µM in assay [13]; 84.2 µM in assay [14]; 95 µM in assay [15]; 30.5 µM in [16]; greater than 100 µM in assay [17]; greater than 100 µM in assay [18]. In assay [19], this molecule displayed a TGI of 49.6 µM.
